We go through five compounds from US6525079B2, “Anti-parasitic heterocycle compounds, agents, formulations, and methods of use thereof” (Pfizer Inc., priority 1998, dated 2003).

For assay [1], the system named is Boophilus microplus larvae. Description: Test for acaricidal activity: treated filter paper envelope, larval mortality. Format: in vivo. Conditions: Rhipicephalus microplus, larvae exposed 48 hours at 25° C.; for mortality at 0.5 µg/cm2: dosage 0.5 μg/cm^2 on filter paper. On the procedure:
Test for Acaricidal Activity
A dose of 10 μg/cm^2 is created by evenly pipetting 0.5 ml of a 1 mg/ml solution of the test compound in a suitable solvent such as acetone or ethanol onto a Whatman No. 1 (Trade Mark) filter paper cut to a size of 8×6.25 cm. When dry, the paper is folded in half, sealed on two sides using a crimping device and placed in a Kilner jar containing a cotton wool pad dampened with water. The jar is then sealed and placed at 25° C. for 24 hours. Next, approximately 50 Boophilus microplus larvae are introduced into the treated paper envelope which is then crimped along the third side to effect a complete seal. The paper envelope is returned to the Kilner jar, which is sealed and placed at 25° C. for a further 48 hours. The papers are then removed and mortality assessed. Negative controls are provided by treating an appropriately cut filter paper with 0.5 ml of solvent only and following the same procedure. Activity at other doses is obtained by varying the concentration of the test solution. The table below illustrates the in vivo activity of a selection of the compounds of the invention against Boophilus microplus larvae. Dosages are expressed in μg/cm^2.

Assay [2] concerns Adult flies (Stomoxys calcitrans). Description: Test for insecticidal activity: topical application to adult flies, mortality after 24 hours. Conditions: 1 μl acetone solution applied to thorax of fly; mortality assessed 24 hours after dosing. The format is in vivo. On the procedure:
Test for Insecticidal Activity Adult flies (Stomoxys calcitrans) are collected and anaesthetized using CO2- 1 μl of an acetone solution containing the test substance is applied directly to the thorax of the fly. The flies are then placed carefully into a 50 ml tube covered with damp gauze to recover from the CO2. Negative controls have 1 μl of acetone dispensed onto them. Mortality is assessed 24 hours after dosing. The table below illustrates the in vivo activity of a selection of the substances of the invention against such flies. Dosages required to produce 100% mortality are expressed in μg/fly.

The compound `FC(F)(F)c1cc(Cl)c(-n2cc(C3CC3(Cl)Cl)nn2)c(Cl)c1` (centres unmarked) [Example 2, 4-(2,2-Dichlorocyclopropyl)-1-(2,6-dichloro-4-trifluoromethylphenyl)-1,2,3-triazole] yielded a mortality at 1 µg/cm2 in assay [1] (dosage 1 μg/cm^2 on filter paper) of 100%. Also, the “Dosage required to produce 100% mortality” value in assay [2] is 0.01 μg/fly. For `FC(F)(F)c1cc(Cl)c(-n2cnc(C3CC3(Br)Br)n2)c(Cl)c1` (centres unmarked) [Example 6, 3-(2,2-Dibromocyclopropyl)-1-(2,6-dichloro-4-trifluoromethylphenyl)-1,2,4-triazole], the “Dosage required to produce 100% mortality” value in assay [2] is 0.01 μg/fly. For `FC(F)(F)c1cc(Cl)c(-n2cc(C3CC3(Br)Br)c3ccccc32)c(Cl)c1` (centres unmarked) [Example 4, 3-(2,2-Dibromocyclopropyl)-1-(2,6-dichloro-4-trifluoromethylphenyl)indole], the “Dosage required to produce 100% mortality” value in assay [2] is 0.05 μg/fly.

Turning to `FC(F)(F)c1cc(Cl)c(-n2cc(C3CC3(Br)Br)nn2)c(Cl)c1` (centres unmarked) [Example 1, 4-(2,2-Dibromocyclopropyl)-1-(2,6-dichloro-4-trifluoromethylphenyl)-1,2,3-triazole], in assay [1], the mortality at 0.5 µg/cm2 is 90%. For the same compound, the “Dosage required to produce 100% mortality” value in assay [2] is on record as 0.005 μg/fly.

Take `N#Cc1cn(-c2c(Cl)cc(C(F)(F)F)cc2Cl)cc1C1CC1(Br)Br` (centres unmarked) [Example 3, 3-Cyano-4-(2,2-dibromocyclopropyl)-1-(2,6-dichloro-4-trifluoromethylphenyl)pyrrole]: the mortality at 0.5 µg/cm2 in assay [1] came out at 100%. Besides, the “Dosage required to produce 100% mortality” value in assay [2] came to 0.005 μg/fly.
